According to US20130324530A1 (Novartis AG, priority 2010, published 2013):

Biological target: Cdk9/cyclinT1 (Homo sapiens, UniProt P50750)
Test: Cdk9/CyclinT1 IMAP assay

Chain of Cdk9/cyclinT1 (P50750 whole entry): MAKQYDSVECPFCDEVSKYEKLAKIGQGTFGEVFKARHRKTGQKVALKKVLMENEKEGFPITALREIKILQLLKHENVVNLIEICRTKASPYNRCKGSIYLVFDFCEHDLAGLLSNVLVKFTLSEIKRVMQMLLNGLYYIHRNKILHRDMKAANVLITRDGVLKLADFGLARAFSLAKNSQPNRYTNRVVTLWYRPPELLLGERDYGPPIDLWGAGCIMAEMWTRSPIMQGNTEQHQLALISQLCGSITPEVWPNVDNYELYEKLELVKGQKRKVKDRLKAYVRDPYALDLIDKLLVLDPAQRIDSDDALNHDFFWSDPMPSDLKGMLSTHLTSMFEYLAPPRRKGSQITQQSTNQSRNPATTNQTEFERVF
Chain of Cdk9/cyclinT1 (O60563 whole entry partner): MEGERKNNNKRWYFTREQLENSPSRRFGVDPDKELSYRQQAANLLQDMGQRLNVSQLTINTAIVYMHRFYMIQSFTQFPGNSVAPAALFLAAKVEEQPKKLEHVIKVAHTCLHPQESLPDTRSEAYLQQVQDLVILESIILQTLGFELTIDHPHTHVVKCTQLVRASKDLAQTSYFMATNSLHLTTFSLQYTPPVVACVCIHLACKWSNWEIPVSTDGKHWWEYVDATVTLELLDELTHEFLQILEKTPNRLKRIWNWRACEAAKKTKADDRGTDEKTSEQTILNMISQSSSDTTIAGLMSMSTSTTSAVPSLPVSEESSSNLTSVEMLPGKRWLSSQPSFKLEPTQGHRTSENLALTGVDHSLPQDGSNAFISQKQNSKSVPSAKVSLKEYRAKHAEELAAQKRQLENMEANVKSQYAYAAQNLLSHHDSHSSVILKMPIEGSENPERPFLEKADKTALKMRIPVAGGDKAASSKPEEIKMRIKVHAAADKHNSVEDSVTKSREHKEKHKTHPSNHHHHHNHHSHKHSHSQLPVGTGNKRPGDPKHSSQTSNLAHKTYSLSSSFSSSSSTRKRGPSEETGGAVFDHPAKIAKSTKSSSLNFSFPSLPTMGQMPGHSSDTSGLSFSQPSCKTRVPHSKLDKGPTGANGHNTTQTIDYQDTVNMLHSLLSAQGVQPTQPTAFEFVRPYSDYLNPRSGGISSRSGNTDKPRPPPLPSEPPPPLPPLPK

IC50 [nM] | SMILES
< 8 | NCCCCNc1cc(-c2cncc(NCc3cccc(F)c3)c2)c(Cl)cn1 [Compound 61]
45 | Clc1cnc(N[C@H]2CC[C@H](N3CCCC3)CC2)cc1-c1cnc(Cl)c(NCC2CCOCC2)c1 [Compound 81]
57 | Clc1cnc(NC2CC2)cc1-c1cncc(NCC2CCOCC2)c1 [Compound 27]
9 | Fc1cccc(CNc2cncc(-c3cc(NCC4CCOCC4)ncc3Cl)c2)c1 [Compound 70]
< 8 | Fc1cccc(CNc2cncc(-c3cc(NC4CCCC4)ncc3Cl)c2)c1 [Compound 48]
< 8 | Fc1cccc(CNc2cncc(-c3cc(NCC[C@H]4CCCNC4)ncc3Cl)c2)c1 [Compound 49]
16 | CN(Cc1cccc(F)c1)c1cncc(-c2cc(N[C@H]3CC[C@H](N)CC3)ncc2Cl)c1 [Compound 32]
35 | CS(=O)(=O)N1CCC(CNc2cncc(-c3cc(N[C@H]4CC[C@H](N)CC4)ncc3Cl)c2)CC1 [Compound 52]
< 8 | N[C@H]1CC[C@H](Nc2cc(-c3cnc(F)c(NCC4CCOCC4)c3)c(Cl)cn2)CC1 [Compound 55, N2′-(trans-4-aminocyclohexyl)-5′-chloro-6-fluoro-N5-((tetrahydro-2H-pyran-4-yl)methyl)-3,4′-bipyridine-2′,5-diamine]
10 | NCC(O)CNc1cc(-c2cncc(NCc3cccc(F)c3)c2)c(Cl)cn1 (centres unmarked) [Compound 50]
25 | O[C@H]1CC[C@@H](Nc2cc(-c3cc(NCC4CCOCC4)cnc3Cl)c(Cl)cn2)CC1 [Compound 17]
325 | C[C@H](CO)Nc1cc(-c2cncc(NCC3CCOCC3)c2)c(Cl)cn1 [Compound 41]
130 | CN(C)CC(C)(C)CNc1cc(-c2cncc(NCc3cccc(F)c3)c2)c(Cl)cn1 [Compound 13]
610 | N[C@H]1CC[C@H](Nc2cc(-c3cnc(N4CCOCC4)c(NCc4cccc(F)c4)c3)c(Cl)cn2)CC1 [Compound 45]
9 | N[C@H]1CC[C@H](Nc2cc(-c3cncc(NCc4cccnc4)c3)c(Cl)cn2)CC1 [Compound 22]
1970 | CN1CCC(CNc2cc(-c3cncc(NCC4CCOCC4)c3)c(Cl)cn2)CC1 [Compound 28]
96 | COc1ncc(-c2cc(N[C@H]3CC[C@H](N)CC3)ncc2Cl)cc1NCC1CCOCC1 [Compound 85]
< 1 | NC[C@H]1CC[C@H](Nc2cc(-c3cncc(OCc4cccc(F)c4)c3)c(Cl)cn2)CC1 [Compound 89]
< 8 | NC[C@H]1CC[C@H](Nc2cc(-c3cncc(NCc4cccc(F)c4)c3)c(Cl)cn2)CC1 [Compound 39, N2′-(trans-4-(aminomethyl)cyclohexyl)-5′-chloro-N5-(3-fluorobenzyl)-3,4′-bipyridine-2′,5-diamine]
< 8 | NCCCNc1cc(-c2cncc(NCc3cccc(F)c3)c2)c(Cl)cn1 [Compound 60]
10 | N[C@H]1CC[C@H](Nc2cc(-c3cncc(NCC4CCCCC4)c3)c(Cl)cn2)CC1 [Compound 23]

IC50 [nM] | SMILES
< 8 | COCCN[C@H]1CC[C@H](Nc2cc(-c3cnc(Cl)c(NCC4CCOCC4)c3)c(Cl)cn2)CC1 [Compound 78, 5′,6-dichloro-N2′-(trans-4-(2-methoxyethylamino)cyclohexyl)-N5-((tetrahydro-2H-pyran-4-yl)methyl)-3,4′-bipyridine-2′,5-diamine]
420 | N[C@H]1CC[C@H](Nc2cc(-c3cnc(O)c(NCC4CCOCC4)c3)c(Cl)cn2)CC1 [Compound 87, 2′-(trans-4-aminocyclohexylamino)-5′-chloro-5-((tetrahydro-2H-pyran-4-yl)methyl)amino-3,4′-bipyridin-6-ol]
1960 | N[C@H]1CC[C@H](Nc2cc(-c3cnc(N4CCOCC4)c(NCC4CCOCC4)c3)c(Cl)cn2)CC1 [Compound 26, N2′-(trans-4-aminocyclohexyl)-5′-chloro-6-morpholino-N5-((tetrahydro-2H-pyran-4-yl)methyl)-3,4′-bipyridine-2′,5-diamine]
1 | O[C@H](CN[C@H]1CC[C@H](Nc2cc(-c3cc(NCC4CCOCC4)cnc3Cl)c(Cl)cn2)CC1)C(F)(F)F [Compound 74, (R)-3-(trans-4-(2,5′-dichloro-5-((tetrahydro-2H-pyran-4-yl)methyl)amino-3,4′-bipyridin-2′-ylamino)cyclohexylamino)-1,1,1-trifluoropropan-2-ol]
8 | COc1cccc(CNc2cncc(-c3cc(N[C@H]4CC[C@H](N)CC4)ncc3Cl)c2)c1 [Compound 15]
2 | O[C@@H](CN[C@H]1CC[C@H](Nc2cc(-c3cc(NCC4CCOCC4)cnc3Cl)c(Cl)cn2)CC1)C(F)(F)F [Compound 73]
< 8 | Fc1cccc(CNc2cncc(-c3cc(NC4CC4)ncc3Cl)c2)c1 [Compound 47]
35 | Clc1cnc(N[C@H]2CC[C@H](N3CCCC3)CC2)cc1-c1cc(NCC2CCOCC2)cnc1Cl [Compound 76, 2,5′-dichloro-N2′-(trans-4-(pyrrolidin-1-yl)cyclohexyl)-N5-((tetrahydro-2H-pyran-4-yl)methyl)-3,4′-bipyridine-2′,5-diamine]
< 8 | N[C@H]1CC[C@H](Nc2cc(-c3cncc(NCc4cc(F)ccc4F)c3)c(Cl)cn2)CC1 [Compound 43]
820 | OCCNc1cc(-c2cncc(NCC3CCOCC3)c2)c(Cl)cn1 [Compound 68]
< 8 | O[C@H]1CC[C@H](Nc2cc(-c3cncc(NCc4cccc(F)c4)c3)c(Cl)cn2)CC1 [Compound 62]
< 8 | N[C@H]1CC[C@H](Nc2cc(-c3cncc(NCc4ccc(F)cc4)c3)c(Cl)cn2)CC1 [Compound 33]
< 8 | N[C@H]1CC[C@H](Nc2cc(-c3cc(NCC4CCOCC4)cnc3Cl)c(Cl)cn2)CC1 [Compound 79]
18 | N[C@H]1CC[C@H](Nc2cc(-c3cncc(NCC4CCOCC4)c3)c(Cl)cn2)CC1 [Compound 63, N2′-(trans-4-aminocyclohexyl)-5′-chloro-N5-((tetrahydro-2H-pyran-4-yl)methyl)-3,4′-bipyridine-2′,5-diamine]
< 8 | Cc1cccc(CNc2cncc(-c3cc(N[C@H]4CC[C@H](N)CC4)ncc3Cl)c2)c1 [Compound 34]
6920 | OCCNc1cc(-c2cnc(N3CCOCC3)c(NCc3cccc(F)c3)c2)c(Cl)cn1 [Compound 37]
< 8 | O[C@H]1CC[C@H](Nc2cc(-c3cnc(Cl)c(NCC4CCOCC4)c3)c(Cl)cn2)CC1 [Compound 86]
32 | CC(=O)N1CCC(CNc2cncc(-c3cc(N[C@H]4CC[C@H](N)CC4)ncc3Cl)c2)CC1 [Compound 36, 1-(4-((2′-(trans-4-aminocyclohexylamino)-5′-chloro-3,4′-bipyridin-5-ylamino)methyl)piperidin-1-yl)ethanone]
< 8 | N[C@H]1CC[C@H](Nc2cc(-c3cncc(NCc4ccncc4)c3)c(Cl)cn2)CC1 [Compound 71]
< 8 | N[C@H]1CC[C@H](Nc2cc(-c3cncc(NCc4cccc(F)c4)c3)c(Cl)cn2)CC1 [Compound 24, N2′-(trans-4-aminocyclohexyl)-5′-chloro-N5-(3-fluorobenzyl)-3,4′-bipyridine-2′,5-diamine]
< 1 | N[C@H]1CC[C@H](Nc2cc(-c3cncc(OCc4cccc(F)c4)c3)c(Cl)cn2)CC1 [Compound 88]

IC50 [nM] | SMILES
32 | CC(C)(CN)CNc1cc(-c2cncc(NCc3cccc(F)c3)c2)c(Cl)cn1 [Compound 12]
< 8 | CN(C)[C@H]1CC[C@H](Nc2cc(-c3cncc(NCc4cccc(F)c4)c3)c(Cl)cn2)CC1 [Compound 31, 5′-chloro-N2′-(trans-4-(dimethylamino)cyclohexyl)-N5-(3-fluorobenzyl)-3,4′-bipyridine-2′,5-diamine]
2.8 | O[C@H]1CCCC[C@@H]1N[C@H]1CC[C@H](Nc2cc(-c3cc(NCC4CCOCC4)cnc3Cl)c(Cl)cn2)CC1 [Compound 90]
< 8 | Fc1cccc(CNc2cncc(-c3cc(N[C@H]4CC[C@H](N5CCCC5)CC4)ncc3Cl)c2)c1 [Compound 84]
< 8 | Clc1cnc(N[C@H]2CC[C@H](NC[C@H]3CCCO3)CC2)cc1-c1cc(NCC2CCOCC2)cnc1Cl [Compound 25, 2,5′-dichloro-N5-((tetrahydro-2H-pyran-4-yl)methyl)-N2′-(trans-4-(((R)-tetrahydrofuran-2-yl)methylamino)cyclohexyl)-3,4′-bipyridine-2′,5-diamine]
130 | OCC(CO)Nc1cc(-c2cncc(NCc3cccc(F)c3)c2)c(Cl)cn1 [Compound 59]
< 8 | N[C@H]1CC[C@H](Nc2cc(-c3cncc(NCc4ccccc4)c3)c(Cl)cn2)CC1 [Compound 51]
2.7 | O[C@H]1CCCC[C@@H]1N[C@H]1CC[C@H](Nc2cc(-c3cnc(Cl)c(NCC4CCOCC4)c3)c(Cl)cn2)CC1 [Compound 91]
< 8 | COCCN[C@H]1CC[C@H](Nc2cc(-c3cncc(NCc4cccc(F)c4)c3)c(Cl)cn2)CC1 [Compound 82]
11 | N[C@H]1CC[C@@H](Nc2cc(-c3cncc(NCc4cccc(F)c4)c3)c(Cl)cn2)CC1 [Compound 21]
< 8 | N[C@H]1CC[C@H](Nc2cc(-c3cncc(NCc4ccc(F)c(F)c4)c3)c(Cl)cn2)CC1 [Compound 35]
< 8 | CN1CCC(CNc2cc(-c3cncc(NCc4cccc(F)c4)c3)c(Cl)cn2)CC1 [Compound 69]
< 8 | NC[C@H]1CC[C@H](Nc2cc(-c3cnc(Cl)c(NCC4CCOCC4)c3)c(Cl)cn2)CC1 [Compound 83]
2260 | COCCNc1cc(-c2cncc(NCC3CCOCC3)c2)c(Cl)cn1 [Compound 58]
1830 | O[C@H]1CC[C@H](Nc2cc(-c3cnc(N4CCOCC4)c(NCC4CCOCC4)c3)c(Cl)cn2)CC1 [Compound 46]
1.8 | O[C@H]1CCCC[C@@H]1N[C@H]1CC[C@H](Nc2cc(-c3cnc(F)c(NCC4CCOCC4)c3)c(Cl)cn2)CC1 [Compound 92]
199 | OCCCNc1cc(-c2cncc(NCC3CCOCC3)c2)c(Cl)cn1 [Compound 57]
< 8 | N[C@H]1CC[C@H](Nc2cc(-c3cncc(NCc4cc(F)cc(F)c4)c3)c(Cl)cn2)CC1 [Compound 64]
21 | CN(C)CCCCNc1cc(-c2cncc(NCc3cccc(F)c3)c2)c(Cl)cn1 [Compound 38]
< 8 | N[C@H]1CC[C@H](Nc2cc(-c3cncc(NCc4cccc(Cl)c4)c3)c(Cl)cn2)CC1 [Compound 42]
